Assays:
Type in all cases: functional
Parameters in all cases: scale not given: the % may be the effect or the level left
[1] = system: Mus musculus; assay: Ex-vivo inhibition of BTK in C57BL/6J mouse assessed as anti-mouse IgD antibody stimulated BCR mediated CD69 level in whole blood isolated from 100 mg/kg, po bid treated mouse measured after 24 hrs post first dose by flow cytometry relative to control
[2] = system: Mus musculus; assay: Ex-vivo inhibition of BTK in C57BL/6J mouse assessed as anti-mouse IgD antibody stimulated BCR mediated CD69 level in whole blood isolated from 10 mg/kg, po bid treated mouse measured after 24 hrs post first dose by flow cytometry relative to control
[3] = system: Mus musculus; assay: Ex-vivo inhibition of BTK in C57BL/6J mouse assessed as anti-mouse IgD antibody stimulated BCR mediated CD69 level in whole blood isolated from 100 mg/kg, po bid treated mouse measured after 6 hrs post first dose by flow cytometry relative to control
[4] = system: Mus musculus; assay: Ex-vivo inhibition of BTK in C57BL/6J mouse assessed as anti-mouse IgD antibody stimulated BCR mediated CD69 level in whole blood isolated from 30 mg/kg, po bid treated mouse measured after 2 hrs post first dose by flow cytometry relative to control

CCN1CCN(Cc2ccc(-c3cc4c(-c5cccc(N6CCOc7cc(C8CC8)cc(F)c7C6=O)c5CO)ccnc4[nH]3)nc2)CC1
Activity [1]: 83% | Activity [2]: 40% | Activity [3]: 83% | Activity [4]: 45%

Source: ChEMBL document CHEMBL4177534, “Discovery and evaluation of 1H-pyrrolo[2,3-b]pyridine based selective and reversible small molecule BTK inhibitors for the treatment of rheumatoid arthritis” (Bioorg Med Chem Lett, 2017)
